In PubChem BioAssay AID1963960 (Molecular Pharmacology Branch, DTP, NCI, 2024):

Tested on: MDA-MB-468 spheroids with HUVEC/MSC, viability
Assay: Anticancer human tumor MDA-MB-468 cell line growth inhibition [PI3K];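 note: spheroids exposed to agents for seven days before readout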;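 for viability, T/C: 100% = DMSO vehicle control viability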
Details: for IC50: curve of first compound; for viability, T/C: stronger effect = lower value; active = viability on the fitted dose curve at most 10% of control; inactive = the rest
Outline: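 Viability of mixed-cell spheroids was determined after exposure to pairwise combinations, one partner being inavolisib, alpelisib, duvelisib or copanlisib. Highest tested concentration matched clinical Cmax where known and 10 microM where not, descending in half-log steps.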

[1] = second compound 0.0316 µM, first compound 0.0316 µM
[2] = second compound 0.0316 µM, first compound 0.1 µM
[3] = second compound 0.0316 µM, first compound 0.316 µM
[4] = second compound 0.0316 µM, first compound 1 µM
[5] = second compound 0.0316 µM, first compound 3.16 µM
[6] = second compound 0.0316 µM, first compound 10 µM
[7] = second compound 0.1 µM, first compound 0.0316 µM
[8] = second compound 0.1 µM, first compound 0.1 µM
[9] = second compound 0.1 µM, first compound 0.316 µM
[10] = second compound 0.1 µM, first compound 1 µM
[11] = second compound 0.1 µM, first compound 3.16 µM
[12] = second compound 0.1 µM, first compound 10 µM
[13] = second compound 0.316 µM, first compound 0.0316 µM
[14] = second compound 0.316 µM, first compound 0.1 µM
[15] = second compound 0.316 µM, first compound 0.316 µM
[16] = second compound 0.316 µM, first compound 1 µM
[17] = second compound 0.316 µM, first compound 3.16 µM
[18] = second compound 0.316 µM, first compound 10 µM
[19] = second compound 1 µM, first compound 0.0316 µM
[20] = second compound 1 µM, first compound 0.1 µM
[21] = second compound 1 µM, first compound 0.316 µM
[22] = second compound 1 µM, first compound 1 µM
[23] = second compound 1 µM, first compound 3.16 µM
[24] = second compound 1 µM, first compound 10 µM
[25] = second compound 3.16 µM, first compound 0.0316 µM
[26] = second compound 3.16 µM, first compound 0.1 µM
[27] = second compound 3.16 µM, first compound 0.316 µM
[28] = second compound 3.16 µM, first compound 1 µM
[29] = second compound 3.16 µM, first compound 3.16 µM
[30] = second compound 3.16 µM, first compound 10 µM
[31] = second compound 10 µM, first compound 0.0316 µM
[32] = second compound 10 µM, first compound 0.1 µM
[33] = second compound 10 µM, first compound 0.316 µM
[34] = second compound 10 µM, first compound 1 µM
[35] = second compound 10 µM, first compound 3.16 µM
[36] = second compound 10 µM, first compound 10 µM

CCCS(=O)(=O)Nc1ccc(F)c(C(=O)c2c[nH]c3ncc(-c4ccc(Cl)cc4)cc23)c1F + CC(Nc1ncnc2nc[nH]c12)c1cc2cccc(Cl)c2c(=O)n1-c1ccccc1
3.49 µM: IC50 (second compound 1 µM)
3.74 µM: IC50 (second compound 0.316 µM)
< 0.0316 µM: IC50 (second compound 10 µM)
inactive: viability, T/C [1] 96.6% | viability, T/C [2] 86.8% | viability, T/C [3] 84.3% | viability, T/C [4] 83.2% | viability, T/C [5] 65.3% | viability, T/C [6] 15.6% | viability, T/C [7] 92.4% | viability, T/C [8] 90.9% | viability, T/C [9] 76.3% | viability, T/C [10] 82.2% | viability, T/C [11] 58.1% | viability, T/C [12] 13.4% | viability, T/C [13] 83.2% | viability, T/C [14] 89.2% | viability, T/C [15] 78.3% | viability, T/C [16] 73.6% | viability, T/C [17] 57.2% | viability, T/C [18] 14% | viability, T/C [19] 61.7% | viability, T/C [20] 66.1% | viability, T/C [21] 69% | viability, T/C [22] 68.3% | viability, T/C [23] 53.6% | viability, T/C [24] 11% | viability, T/C [25] 53.6% | viability, T/C [26] 64.3% | viability, T/C [27] 49.3% | viability, T/C [28] 57.7% | viability, T/C [29] 48.4% | viability, T/C [30] 11.2% | viability, T/C [31] 40.3% | viability, T/C [32] 39.3% | viability, T/C [33] 40.6% | viability, T/C [34] 42.9% | viability, T/C [35] 41.1% | viability, T/C [36] 8.78%
2.53 µM: IC50 (second compound 3.16 µM)
4.45 µM: IC50 (second compound 0.0316 µM)
3.91 µM: IC50 (second compound 0.1 µM)

C[C@@H](NC(=O)c1ncnc(N)c1Cl)c1ncc(C(=O)Nc2cc(C(F)(F)F)c(Cl)cn2)s1 + CC(Nc1ncnc2nc[nH]c12)c1cc2cccc(Cl)c2c(=O)n1-c1ccccc1
< 0.0316 µM: IC50 (second compound 10 µM)
inactive: viability, T/C [1] 107% | viability, T/C [2] 114% | viability, T/C [3] 92.5% | viability, T/C [4] 109% | viability, T/C [5] 91.3% | viability, T/C [6] 94.9% | viability, T/C [7] 83% | viability, T/C [8] 94.3% | viability, T/C [9] 93.3% | viability, T/C [10] 89% | viability, T/C [11] 93.5% | viability, T/C [12] 83.7% | viability, T/C [13] 84.8% | viability, T/C [14] 76.8% | viability, T/C [15] 83.1% | viability, T/C [16] 82% | viability, T/C [17] 75.5% | viability, T/C [18] 83.7% | viability, T/C [19] 70% | viability, T/C [20] 65.8% | viability, T/C [21] 75.3% | viability, T/C [22] 81.8% | viability, T/C [23] 75.2% | viability, T/C [24] 64.5% | viability, T/C [25] 61.8% | viability, T/C [26] 60.2% | viability, T/C [27] 63.7% | viability, T/C [28] 55.7% | viability, T/C [29] 61.8% | viability, T/C [30] 58.9% | viability, T/C [31] 42.3% | viability, T/C [32] 40.6% | viability, T/C [33] 46.1% | viability, T/C [34] 53% | viability, T/C [35] 41.7% | viability, T/C [36] 39.2%
> 10 µM: IC50 (second compound 0.0316 µM) | IC50 (second compound 0.1 µM) | IC50 (second compound 0.316 µM) | IC50 (second compound 1 µM) | IC50 (second compound 3.16 µM)
